Test results taken from patent publication US20150086695A1, “SWEETENER COMPOSITION, SWEETENER PRODUCTS, AND METHODS OF SWEETENING” (Almendra Americas, LLC, priority 2013, published 2015).

Test system: trained expert panelists
Experiment: Sensory panel scaling of taste attributes on 0-15 scales (formulation study ballot)
Format: in vivo, human
Conditions: 0-15 scale; for Bitterness Intensity @ 2 Min (Bitter2) / Numbing/Tingling Sensation @ 2 Min (Numb/Ting2) / Sweetness Intensity @ 2 Min (Sweet2): at 2 minutes; for Bitterness Intensity @ 2 Min (Bitter2) / Numbing/Tingling Sensation @ 2 Min (Numb/Ting2) / Sweetness Intensity @ 2 Min (Sweet2) / Astringency Intensity (Astring) / Bitterness Intensity (IB) / Mouthfeel (Mfeel) / Numbing/Tingling Sensation (Numb/Ting) / Soapiness (Soap) / Sweetness Intensity Initial (Sweetness) / Sweetness Onset/Appearance Time (Onset): defined calibration rating, Sucrose Reference 10.0% sucrose, REB A Reference 500 PPM, both in 0.1% citric acid
Source text: Tongue numbing can also manifest itself as “tongue tingling”. These non-sugar-like characteristics appear inter-related in the sense that formulation as well as temperature changes affect the perception of several of them. Another taste characteristic of steviol glycosides, particularly those with relatively low levels of REB A, is soapiness, a characteristic that results from the surfactant portion of the molecule. To quantify all of these sensory effects by existing methods would require an expert sensory panel and at least 4 different sensory tests (i.e., C/R Function Determination, Flavor Profile Analysis, Temporal Profile Analysis and Adaptation Profile Analysis). However, to address a need for rapid screening of HP sweetener formulations, Prakash et al., described a scaling technique to quantify all of these sensory percepts in a single test (reference shown below under the table). An improvement of this methodology is described below.
Prior to the evaluation of test samples, all panelists must first calibrate themselves on Sucrose and Reference Samples (e.g., REB A) to ensure that they are able to appropriately scale taste attributes of interest. These Reference Samples are to be available in ample quantities for all experimental sessions. The Sucrose Reference is 10.0% sucrose acidified with 0.1% citric acid. For illustration purposes, an example of a Reference Sample can be a REB A Reference Sample that has 500 PPM REB A in the same system for general formula optimization studies.
Take a ca. 15 mL sample of the Sucrose Reference into the mouth swishing it around vigorously and note all attributes of the sensory experience. After ca. 10 sec, expectorate the sample and immediately rinse vigorously with ca. 15 mL of water, expectorating the rinse water. Over the next 2 minutes, while minimizing tongue movement in the mouth, pay attention to any rebound or intensification in perceived sweetness, bitterness, or numbing/tingling sensation. The intensity of the attribute perceived at 2 minutes is an estimate of its lingering tendency. Upon completion of calibration with the Sucrose Reference, calibration with the REB A Reference is carried out in the same way. The attribute ratings for the Sucrose and REB A References, all on 0-15 scales, are defined as follows: […]
After completion of reference sample calibrations, as well as in follow up of all sample tests, rinse the mouth vigorously with ca. 15 mL portions of the Sucrose Reference solution and two ca. 15 mL portions of water in effort to get the sensory system back to baseline. […]

C=C1C[C@@]23CC[C@H]4[C@@](C)(CCC[C@@]4(C)C(=O)O[C@@H]4O[C@H](CO)[C@@H](O)[C@H](O)[C@H]4O)[C@@H]2CC[C@]1(O[C@@H]1O[C@H](CO)[C@@H](O)[C@H](O[C@@H]2O[C@H](CO)[C@@H](O)[C@H](O)[C@H]2O)[C@H]1O[C@@H]1O[C@H](CO)[C@@H](O)[C@H](O)[C@H]1O)C3 [REB A100, rebaudioside A]
3: Sweetness Intensity @ 2 Min (Sweet2) | Bitterness Intensity (IB) | Sweetness Onset/Appearance Time (Onset)
10: Sweetness Intensity Initial (Sweetness)
2: Bitterness Intensity @ 2 Min (Bitter2) | Numbing/Tingling Sensation @ 2 Min (Numb/Ting2)
0: Astringency Intensity (Astring) | Mouthfeel (Mfeel) | Numbing/Tingling Sensation (Numb/Ting)
1: Soapiness (Soap)

OC[C@H]1O[C@@](CO)(O[C@H]2O[C@H](CO)[C@@H](O)[C@H](O)[C@H]2O)[C@@H](O)[C@@H]1O [Sucrose, sucrose]
10: Mouthfeel (Mfeel) | Sweetness Intensity Initial (Sweetness)
0: Bitterness Intensity @ 2 Min (Bitter2) | Numbing/Tingling Sensation @ 2 Min (Numb/Ting2) | Sweetness Intensity @ 2 Min (Sweet2) | Astringency Intensity (Astring) | Bitterness Intensity (IB) | Numbing/Tingling Sensation (Numb/Ting) | Soapiness (Soap) | Sweetness Onset/Appearance Time (Onset) | scores on all lingering attributes (Example 9, REBA100 500 mg/L in 0.1% citric acid, two panelists)
